“Also recorded” adds a separate entry of the source.
Legend:
[1] = test system: ERK 1 / ERK 2 / p90RSK phosphorylation in L6 IR-A cells; assay: Western blot dose-response, MAPK pathway (ERK1, ERK2, p90RSK), L6 IR-A; format: cell-based, rat cells; human IR-A
Method: (§5) R/^-IR-B (80,000 cells/well) or L6 IR-A cells (240,000 cells/well) were seeded in 6-well plates and allowed to grow to confluence (~ 48 hours). Prior to stimulation, cells were serum starved in SFM/1% BSA for 4 h. […] Lysates were scraped from the well, spun at 13,000 rpm for 3 min at 0°C to remove cell debris and stored at -80°C. Lysate protein concentrations were quantified using Bio-Rad DC™ Protein Assay and 20μg of each sample was separated in 10% glycine gels under reducing conditions. Transferred blots were blocked for 1 h at room temperature in TBST containing 3% BSA and probed with primary antibodies (Pathscan Antibody, pAkt(Thr308), pGSK(Ser9), pAS160(Thr642)) in blocking solution (TBST containing 3% BSA) overnight at 4°C. All blots were also probed with anti-β-tubulin as a loading control. Blots were washed six times for 5 min each in TBST then probed with either HRP-conjugated (dose-response) or fluorophore-conjugated (time-course) secondary antibodies for 1 hour at room temperature. The washing was then repeated.
(§6) Dose response blots were developed in ECL reagent according to manufacturer’s instruction and imaged in Fujiflim LAS-4000 Luminescent Image Analyzer. […] All blots were performed at least three times. All data were analysed with LI-COR Image Studio™ software and each band intensity was normalized to tubulin of its respective lane.

[2] = test system: Akt / GSK-3β / S6 phosphorylation in L6 IR-A cells; assay: Western blot time-course, PI3K/Akt pathway, L6 IR-A; format: cell-based, rat cells; human IR-A; conditions: 10 nM, 0–30 min, p-Akt Ser473, p-Akt Thr308, p-GSK3β, p-S6
Method: as §5
(§7) Dose response blots were developed in ECL reagent according to manufacturer’s instruction and imaged in Fujiflim LAS-4000 Luminescent Image Analyzer. Time course blots were imaged with an Odyssey® CLx Imaging System. All blots were performed at least three times. All data were analysed with LI-COR Image Studio™ software and each band intensity was normalized to tubulin of its respective lane.

IGF-1R [3] = biological target: T1, IGF-1R (Homo sapiens, UniProt P08069); conditions: ref [9]; cited from earlier work
T1 construct: expressed in transfected cells; host or cells: P6 cells (BALB/c3T3 mouse fibroblasts overexpressing human IGF-1R); Triton X-100 lysate captured on anti-IGF-1R antibody 24-31
Text: (§1) This contrasts with cis-dicarba insulin which wa ...

IR-B = conditions: ref [9]; cited from earlier work
Text: as §1

IGF-1R [4] = biological target: T1, IGF-1R; conditions: cis dicarba insulin, footnote b; ref [9]; cited from earlier work
[5] = test system: ERK 1/2 / p90RSK phosphorylation in L6 IR-A cells; assay: Western blot time-course, MAPK pathway, L6 IR-A; format: cell-based, rat cells; human IR-A; conditions: 10 nM, 0–30 min
Method: as §5, §7

[6] = test system: L6 rat skeletal myoblasts overexpressing human IR-A (L6 IR-A cells); assay: DNA synthesis assay (EdU incorporation); format: cell-based; conditions: 18 h, 0.01 - 300 nM, compared to native insulin
Method: (§2) Assays were performed in triplicate in at least three independent experiments.

[7] = test system: p52 Shc (phospho-Tyr239/Tyr240) in L6 IR-A cells; assay: p52 Shc phosphorylation time-course (western blot); format: cell-based, rat cells; human IR-A; conditions: 10 nM
Method: (§3) Figure 6 Cis-dicarba analogues are incapable of promoting IR-A internalization due to inability to promote phosphorylation of IR-A, IRS-1 and Shc. […] Data are presented as % of surface receptor/total receptor followed by normalisation with % of surface receptor in SFM at t = 0; i.e. SFM at t = 0 is equivalent to 100%. […] All data are the mean ± S.E.M. n = at least 3 independent experiments. Error bars are shown when greater than the size of the symbols. Statistical significance were determined via one-way repeated measures ANOVA followed by Dunnets multiple test.
R/^-IR-B (80,000 cells/well) or L6 IR-A cells (240,000 cells/well) were seeded in 6-well plates and allowed to grow to confluence (~ 48 hours). Prior to stimulation, cells were serum starved in SFM/1% BSA for 4 h. […] Lysates were scraped from the well, spun at 13,000 rpm for 3 min at 0°C to remove cell debris and stored at -80°C. Lysate protein concentrations were quantified using Bio-Rad DC™ Protein Assay and 20μg of each sample was separated in 10% glycine gels under reducing conditions. […]
Dose response blots were developed in ECL reagent according to manufacturer’s instruction and imaged in Fujiflim LAS-4000 Luminescent Image Analyzer. […] All data were analysed with LI-COR Image Studio™ software and each band intensity was normalized to tubulin of its respective lane.

IR-A = IR-A receptor internalization; format: cell-based, human; conditions: 10 nM, 2 hours post-stimulation
Method: (§4) All data are the mean ± S.E.M. n = at least 3 independent experiments. Error bars are shown when greater than the size of the symbols.
as §2

[8] = test system: Akt / GSK-3β / S6 / AS160 phosphorylation in R^-IR-B cells; assay: Western blot dose-response, PI3K/Akt pathway, R-IR-B fibroblasts; format: cell-based, mouse cells; human IR-B; conditions: 10 min, significant difference only at 0.1 nM (p* ≤ 0.05 to p** ≤ 0.01)
Method: (§8) R/^-IR-B (80,000 cells/well) or L6 IR-A cells (240,000 cells/well) were seeded in 6-well plates and allowed to grow to confluence (~ 48 hours). Prior to stimulation, cells were serum starved in SFM/1% BSA for 4 h. […] Lysates were scraped from the well, spun at 13,000 rpm for 3 min at 0°C to remove cell debris and stored at -80°C. Lysate protein concentrations were quantified using Bio-Rad DC™ Protein Assay and 20μg of each sample was separated in 10% glycine gels under reducing conditions. Transferred blots were blocked for 1 h at room temperature in TBST containing 3% BSA and probed with primary antibodies (Pathscan Antibody, pAkt(Thr308), pGSK(Ser9), pAS160(Thr642)) in blocking solution (TBST containing 3% BSA) overnight at 4°C. […]
(§9) Phosphorylation levels are expressed as percentage of level detected […]
(§10) were determined via 2-way ANOVA (bars above graph); difference comparing each stimulating concentration (pink asterisks) were further analyzed using Holm-Sidak test. ns: non-significant; * (P ≤ 0.05), ** (P ≤ 0.01); *** (P ≤ 0.001); **** (P ≤ 0.0001).

[9] = test system: Akt / GSK-3β / S6 / AS160 phosphorylation in L6 IR-A cells; assay: Western blot dose-response, PI3K/Akt pathway (Akt, GSK-3β, S6, AS160), L6 IR-A; format: cell-based, rat cells; human IR-A
Method: as §5, §6

[10] = biological target: T2, IR-A (phospho-Tyr1150/Tyr1151) (Homo sapiens, UniProt P06213); assay: IR-A phosphorylation Tyr1150/Tyr1151 time-course (western blot); format: cell-based; conditions: L6 IR-A, 10 nM, 0–10 min
T2 construct: expressed in transfected cells; host or cells: L6 rat skeletal myoblasts over-expressing human IR-A (hIR-A L6), from Novo Nordisk
Text: as §4

mitogenic signalling = conditions: ref [9], [30]; cited from earlier work
IR isoform B (IR-B) = biological target: T3, IR isoform B (IR-B) (Homo sapiens, UniProt P06213); conditions: cis dicarba insulin, footnote b, ref [9], cited from earlier work
T3 construct: expressed in transfected cells; host or cells: R-IR-B cells (IGF-1R knockout mouse embryonic fibroblasts over-expressing human IR-B); Triton X-100 lysate captured on anti-IR antibody 83-7

NIH3T3-L1 adipocytes = assay: Glucose uptake assay (2-deoxyglucose); format: cell-based; conditions: paired T-test; n = at least 3
Method: NIH3T3-L1 myoblasts (up to passage 20) grown in DMEM supplemented with 10% newborn calf serum, 2mM L-glutamine, 100 U/l penicillin, 100 µg/L streptomycin at 37°C were seeded into 24-well plates at 5 x 10^3 cells/well and grown for 8 days to confluence. They were then differentiated into adipocytes as described in Govers et al. ([51]). After differentiation the NIH3T3-L1 cells express 37,000 IGF-1R and 250,000 IR per cell ([52]). […] Briefly, 3T3-L1 adipocytes were serum starved in SFM/1% BSA for 4 h, washed twice with Krebs-Ringer phosphate buffer (KRP; 12.5mM HEPES, 120mM NaCl, 6mM KCl, 1.2mM MgSO4, 1mM CaCl2, 0.4mM Na2HPO4, 0.6mM Na2HPO4 (pH7.4)) containing 1% BSA and incubated for 15min at 37°C. […] For the final 10 min 2-deoxyglucose (DOG) uptake was initiated by the addition of 50 µM cold deoxyglucose and 1 µCi ^3H –deoxyglucose per well. The assay was terminated by rapidly washing the cells three times with ice-cold KRP buffer. Cells were solubilized in 0.5 M NaOH/0.1% SDS and ^3H content was determined by scintillation counting. Nonspecific 2-DOG uptake was determined in the presence of 50μM cytochalasin B. Assays were performed in triplicate in at least three independent experiments.

metabolic activity = conditions: ref [9], [30]; cited from earlier work
IR [11] = conditions: KIRA; compared to insulin; ref [9]; cited from earlier work
Text: This is similar to the poorly mitogenic S597 peptide, which also promoted slowe ...

[12] = test system: ERK 1 / ERK 2 / p90RSK phosphorylation in R^-IR-B cells; assay: Western blot dose-response, MAPK pathway, R-IR-B fibroblasts; format: cell-based, mouse cells; human IR-B; conditions: 0.1–100 nM, 10 min, 2-way ANOVA
Method: as §8, §9, §10

IR [13] = conditions: ref [9], [30]; cited from earlier work
C57BL6 male mice = assay: Insulin tolerance test; format: in vivo, mouse; conditions: 0.75 IU/kg ip
IRS-1 in L6 IR-A cells = assay: IRS-1 activation time-course (immunoprecipitation, pTyr20); format: cell-based, rat cells; human IR-A; conditions: 10 nM
Method: as §3
Activated IRS-1 was determined using immunoprecipitation. Anti-IRS-1 antibody(4ug) was pre incubated with protein G agarose overnight at 4°C before adding to lysates to immunoprecipitate IRS-1 overnight at 4°C. Complexes were washed three times in PBS, boiled under reducing conditions and samples separated on 10% glycine gels. Transferred blots were blocked for 1 h at room temperature in TBST containing 3% BSA and probed with primary antibodies (anti-IRS-1 for total IRS-1 protein, or anti pTyr20 for total phosphorylated protein in immunoprecipitation) in blocking solution (TBST containing 3% BSA) overnight at 4°C. Blots were washed six times for 5 min each in TBST then probed with fluorophore-conjugated secondary antibodies (donkey anti-mouse 680RD and anti- rabbit 800CW) for 1 hour at room temperature. […]

[14] = dose-response, compared to insulin

cis-[Δ^4A6,11]-dicarba human insulin [cis dicarba insulin]
phosphorylation of ERK 1, ERK 2 and p90RSK (in words) ([1]; 0.1–10 nM, t = 10 min, p* ≤ 0.05 to p**** ≤ 0.0001 vs parent): significantly reduced phosphorylation levels of ERK 1, ERK 2 and p90RSK
p-p90RSK (S380), overall significance vs parent ([1]; L6 IR-A, 0.1–100 nM, 10 min, 2-way ANOVA): * (P ≤ 0.05)
MAPK pathway activation (in words) [1, 14]: significantly less effective than insulin or glargine, respectively, in activating the MAPK pathway; also recorded: significantly less potent at activating the MAPK pathway
kinetics of activation of the PI3K/Akt pathway (in words) [2]: essentially the same
binding and activation of IGF-1R (in words) (IGF-1R [3]): equipotent to insulin in both binding and activation of IR-B and IGF-1R
binding and activation of IR-B (in words) (IR-B): equipotent to insulin in both binding and activation of IR-B and IGF-1R
Affinity (% Insulin ± SEM), IGF-1R (IGF-1R [4]): ~100 % Insulin
IC50 (IGF-1R [4]): > 300 nM
MAPK signalling activation, ERK1/2 and p90RSK (in words) ([5]; compared to parent): lower level of activation of MAPK signalling
ERK 1/2 phosphorylation maximal level (in words) ([5]; compared to parent peptides): never achieved the maximal level attained through stimulation by their corresponding parent peptides
DNA synthesis, fold reduction in mitogenic potency vs native insulin [6]: ~ 5 fold
Shc activation (in words) [7]: significantly less potent in activating both IRS-1 and Shc
Shc activation relative to insulin ([7]; 0–10 min, compared to insulin): ~ 30%
IR-A internalization (in words) (IR-A): significantly impaired ability to promote IR-A internalization, with virtually all receptor remaining on the surface 2 hours post-stimulation; also recorded: ineffective in promoting IR internalisation
Akt phosphorylation at Ser473 (in words) [8]: generally similar to their parent peptides
Akt phosphorylation at Ser473 (in words) ([9]; L6 IR-A, 10 min, significant difference only at 0.1 nM (p* ≤ 0.05 to p** ≤ 0.01)): generally similar to their parent peptides
PI3K/Akt pathway activation (in words) [9, 14]: equal potency in activating the PI3K/Akt pathway
IR-A Tyr1150/Tyr1151 phosphorylation (in words) [10]: much slower to stimulate receptor activation; also recorded: reduced kinetics of activation compared to insulin
IR-A Tyr1150/Tyr1151 phosphorylation, response relative to insulin ([10]; % of that of insulin): ~ 20%
mitogenic response (in words) (mitogenic signalling): poor at activating a mitogenic response
Affinity (% Insulin ± SEM), IR-B (IR isoform B (IR-B); non-statistically significant): 100 % Insulin
IC50 (IR isoform B (IR-B)): 1.07 ± 0.3 nM
glucose uptake, significance of difference between insulin, cis-dicarba insulin and cis-dicarba glargine (NIH3T3-L1 adipocytes): ns
metabolic activity (in words) (metabolic activity): promotes equivalent metabolic activity
total receptor phosphorylation in kinase receptor activation assay (in words) (IR [11]): almost as potent as insulin in a kinase receptor activation assay
p-Erk 1 (T202/Y204), overall significance vs parent [12]: * (P ≤ 0.05)
IR binding (in words) (IR [13]): binds the IR with equal affinity to insulin
blood glucose lowering (in words) (C57BL6 male mice; chow fed mice, non-fasting, 2 hours post-treatment): no statistical difference
blood glucose change, significance vs parent (AUC) (C57BL6 male mice; insulin vs cis-dicarba insulin, glargine vs cis-dicarba glargine, paired T-test, n = 5-6 per group): ns
IRS-1 activation (in words) (IRS-1 in L6 IR-A cells): significantly less potent in activating both IRS-1 and Shc
IRS-1 activation relative to insulin (IRS-1 in L6 IR-A cells; 0–10 min, compared to insulin): ~ 30%

Source: PMC9271792 (Frontiers in Endocrinology, 2022)
